Marks after values point to notes of the source that are not given here.
Key:
[1] = test system: pigs experiencing induced cardiac arrest; assay: Pigs in induced VF cardiac arrest, untreated for 20 minutes, given inhaled isoflurane at the start of conventional manual CPR; assay type: in vivo
Experimental: As an example, Applicants conducted experiments on pigs experiencing induced cardiac arrest. Cardiac arrest was induced by generating ventricular fibrillation (VF) and pigs were left in untreated cardiac arrest for 20 minutes. At the initiation of conventional manual CPR, inhaled isoflurane at 4% was introduced via an anesthesia machine for a total of 3 minutes. The anesthesia was then turned off. After a total of 4 minutes of CPR the animals were then shocked back into a stable perfusing heart rhythm and the dose of isoflurane anesthesia was restarted at 1% to provide for anesthesia during the recovery period of the animals. […] Cardiac function based upon an assessment of the left ventricular (LV) ejection fraction (EF) after 1 and 4 hours was normal, as determined by echocardiography, and post resuscitation inotropic support was unnecessary due to the absence of hemodynamic instability. Two of the 4 animals had undetectable levels of markers of cardiac injury (creatinine phosphokinase MB and cardiac troponin [cTnI]), while 2 of the 4 animals had mild elevations of markers of cardiac injury (creatinine phosphokinase MB and cTnI) at 4 hours post ROSC (6.8±9 and 5.8±11 in ng/mL, respectively). […] Although the duration of untreated VF in the control animals was 5 minutes shorter, post ROSC left ventricular function was severely compromised (EF: 33±9%) and there was significant elevation of CKMB and cTnI at 4 hours post ROSC (26.5±13.7 and 31.2±14.3, p<0.05) compared to isoflurane treated animals resuscitated after 20 minutes of untreated VF. In the absence of anesthesia during CPR as described above, Applicants were been unable to resuscitate pigs after 20 minutes of untreated arrest with conventional CPR. These findings represent an important advance in the field of CPR.

[2] = test system: animals after cardiac arrest and ROSC; assay: Second cardiac arrest/CPR experiment, sevoflurane-treated (SPoC) vs control: left ventricle ejection fraction post ROSC; assay type: in vivo, pigs; details: *P<0.05 vs controls
Experimental: (§1) Another experiment was conducted with similar results. In that experiment, the hearts were subsequently removed from 5 animals from each group 15 minutes post-ROSC for mitochondrial function testing. Compared with the control group, all mitochondrial function tests were improved in the sevoflurane treated animals.
(§2) Table 1 illustrates the mitochondrial function for complex I substrates pyruvate (P, 10 mM) and malate (M, 10 mM) and complex II substrate succinate (Suc, 10 mM) in control hearts vs. sevoflurane-treated hearts (SPoC). LVEF refers to the left ventricle ejection fraction percentage at 12 min post return of spontaneous circulation (ROSC). RCI refers to the respiratory control index (state 3/state 4 respiration). ATP refers to adenosine triphosphate synthesis and Ca Ret refers to calcium retention capacity until mitochondrial transition pore opening. The asterisk (*) refers to P of less than 0.05.

[3] = test system: heart mitochondria (complex I and complex II substrates); assay: Mitochondrial function testing of hearts removed 15 minutes post-ROSC; assay type: in vivo, pigs
Experimental: as §1, §2

[4] = at 37° C.; cited from earlier work
[5] = 4 hours post ROSC, 2 of 4 animals undetectable, 2 of 4 mild elevations
[6] = pyruvate 10 mM and malate 10 mM

SMILES | cardiac troponin cTnI (marker of cardiac injury) [1, 5] [ng/mL] | creatinine phosphokinase MB (marker of cardiac injury) [1, 5] [ng/mL] | post resuscitation inotropic support ([1]; absence of hemodynamic instability) | cardiac function based on left ventricular (LV) ejection fraction (EF) ([1]; after 1 and 4 hours, by echocardiography) | shocks needed to achieve return of spontaneous circulation (ROSC) ([1]; all 4 animals, 20 min untreated VF, isoflurane 4% for 3 min, after 4 min CPR and one dose of 0.5 mg epinephrine) | LVEF (%) 12 min Post ROSC [2] | all mitochondrial function tests compared with the control group ([3]; 5 animals per group, hearts removed 15 min post-ROSC) | RCI P/M (respiratory control index, state 3/state 4 respiration) ([3]; complex I substrates pyruvate 10 mM and malate 10 mM, hearts removed 15 min post-ROSC) | RCI Suc (respiratory control index) ([3]; complex II substrate succinate 10 mM, hearts removed 15 min post-ROSC) | ATP P/M (adenosine triphosphate synthesis) [3, 6] | Ca Ret P/M (calcium retention capacity until mitochondrial transition pore opening) [3, 6] | ATP Suc (adenosine triphosphate synthesis) ([3]; succinate 10 mM) | Ca Ret Suc (calcium retention capacity until mitochondrial transition pore opening) ([3]; succinate 10 mM) | blood gas partition coefficient [4]
FC(F)OC(Cl)C(F)(F)F (centres unmarked) [isoflurane] | 5.8 ± 11 | 6.8 ± 9 | unnecessary | normal | 1-2 shocks |  |  |  |  |  |  |  |  | 
FCOC(C(F)(F)F)C(F)(F)F [sevoflurane] |  |  |  |  |  | 53 ± 16* % | improved | 11.4 ± 0.5* | 4.5 ± 0.2* | 148.5 ± 24.8* nm/min/mg | 318.8 ± 45.0* nm/min/mg | 132.3 ± 18.4* nm/min/mg | 474.0 ± 58.8* nm/min/mg | 0.65
